Assay results reported in patent US10544092B2 (priority 2015, dated 2020).

Legend:
Format in all cases: in vivo
[1] = test system: soft rot of chinese cabbage; assay: control of soft rot of chinese cabbage (cut leaves); details: dosage 400 mg/L, 48 hours
Protocol: Soft rot of chinese cabbage: Chinese cabbage leaves are cut into 2 cm square and placed on the double filter paper in a petri dish. The testing compound is dissolved in DMF and diluted with water to the desired concentration. The testing solution is sprayed onto the surface of the cabbage leaf and dried in a fume hood. The surface of cabbage leaf is pierced using inoculation needle. A spore suspension (5 μl) of the chinese cabbage soft rot bacteria in the stable growth phase is inoculated onto the breakage of leaves, disease development is allowed to progress in a growth cabinet under dark condition for 48 hours. The activity of the compound is evaluated based on germination or growth of control treatment.

[2] = test system: melon bacterial fruit blotch; assay: control of melon bacterial fruit blotch (seed soaking); details: dosage 800 mg/L, after 2 weeks
Protocol: Melon bacterial fruit blotch: The testing compound is dissolved in a small amount of DMF and diluted with water to the desired concentration. The pathogenic bacteria in the stable growth phase is mixed with the testing solution. After melon seeds (accelerating germination) soaked in the solution containing pathogenic bacteria and compound for 0.5 hour, the seeds are sown in earthworm soil cup and then transferred into a greenhouse to allow disease to develop. After 2 weeks, The activity of the compound is evaluated based on germination or growth of control treatment

[3] = test system: bacterial leaf streak of rice (Xanthomonas oryzae pv. oryzicola); details: field trial; for Disease control (%) repeat I / Disease control (%) repeat II / Disease control (%) repeatIII: 400 g a.i./hm^2, a week after 3 spray applications; for Disease control (%) average: 400 g a.i./hm^2, average of repeats I-III

Compound | control against soft rot of chinese cabbage [1] | control against melon bacterial fruit blotch [2] | Disease control (%) repeat I [3] | Disease control (%) repeat II [3] | Disease control (%) repeatIII [3] | Disease control (%) average [3]
N#CC(C#N)=NOCc1cccc(Br)c1 [Compound 9] | 100% | 100% |  |  |  | 
COc1ccc(CON=C(C#N)C#N)cc1 [Compound 19] | 100% |  |  |  |  | 
N#CC(C#N)=NOCc1ccc([N+](=O)[O-])cc1 [Compound 34] | 100% |  |  |  |  | 
N#CC(C#N)=NOCc1cccc(C#N)c1 [Compound 36] | 100% |  |  |  |  | 
N#CC(C#N)=NOCc1ccc(C#N)cc1 [Compound 37] | 100% |  |  |  |  | 
N#CC(C#N)=NOCc1ccc(Cl)c(Cl)c1 [Compound 59] | 100% | 100% | 56.96% | 58.37% | 51.24% | 55.52%
N#CC(C#N)=NOCc1ccc(F)c(F)c1 [Compound 83] | 100% | 100% |  |  |  | 
thiazole zinc [reference compound] |  |  | 39.21% | 37.24% | 37.88% | 38.11%
